Entries after “also recorded” stand apart in the source; their conditions may differ.
How the values were obtained:
D2 receptor = biological target: T1, D2 receptor (Homo sapiens, UniProt P14416); test: D2 receptor function assay, calcium mobilization (FLIPR); assay type: cell-based; settings: HEK293, antagonism of D2 receptor
T1 construct: expressed in transfected cells; host or cells: HEK293
Experimental: Bioactivity Test • I. D2 receptor affinity assay: The affinity of the compound to D2 receptor was determined by radioligand competition assay, and the cloned D2 receptor was expressed in HEK293 cell line. • II. D2 receptor function assay: The ability of the compound to antagonize the D2 receptor was determined using a calcium mobilization assay (FLIPR). • III. DAT receptor function assay: The ability of the compound to inhibit DAT was determined by neurotransmitter transporter absorption assay.
• Cell line: HEK293 • DMEM medium (Invitrogen) • Fetal bovine serum (FBS, Invitrogen) • L-Glutamine (Invitrogen) G418 (Invitrogen) • Blasticidin (Invitrogen)
• Fluo-4 Direct Kit (Invitrogen)
• 250 mM Probenecid solution was formulated: according to the kit instructions, 1 mL of FLIPR buffer salt solution was added to 77 mg probenecid just before needed. • 2× (8 μM) Fluo-4 Direct™ loading buffer was formulated: the number of tubes in Fluo-4 Direct™ needed for the experiment was melted in advance. Just before needed, 10 ml of FLIPR buffer salt solution and 0.2 mL of 250 mM Probenecid solution were added to each tube and vortexed in dark for more than 5 minutes.
• a) One tube of cells was taken from the liquid nitrogen tank and quickly thawed in 37° C. water bath. • b) The cell suspension was added to a centrifuge tube to which the preheated 20 ml medium was added in advance. • c) The centrifuge tube was centrifuged at 1000 rpm for 5 minutes at room temperature. • d) The supernatant was slowly decanted to avoid affecting the precipitated cells. • e) The cells were resuspended with 10-30 ml medium by pipetting the cells gently with a pipette. • f) The viability and number of cells were calculated with the cell counter. • g) The cells were diluted to 1×10^5 cells/ml with medium, and inoculated in the 384-well polylysine coated cell plate at 20 μL/well. • h) The plate was incubated in an incubator at 5% CO2, 37° C. for 16 to 20 hours.
10 μL of experimental buffer salt solution was added into the cell plate according to the set program, and the fluorescence signal was read. 10 μL of agonist reference compound was further added at a given concentration to the cell plate and the fluorescence signal was read. After reading, the data was derived by “Max-Min” and “Read 90 to Maximum Allowed” methods in the software and EC80 of the corresponding cell line was calculated, and the reference compound with a concentration of 6× EC80 was prepared. • f) The FLIPR instrument software was run. 10 μL of the compound to be tested and the reference compound at a given concentration were added into the cell plate according to the set program, and the fluorescence signal was read. 10 μL of reference compound agonist was further added at a concentration of 6× EC80 to the cell plate and the fluorescence signal was read. • g) Data Analysis • Calculation formula for data in the project:
Inhibitor % activity=100−(signal value per well−average value for high dose control group of inhibitor)/(average value for DMSO control group−average value for high dose control group of inhibitor)*100%.

[1] = tested on: PCP-induced high locomotor activity in mice; test: Phencyclidine (PCP) induced high locomotor activity (LMA) in mice; assay type: in vivo; design: Distance resulting from the activity, First 30 min / Distance resulting from the activity, Last 30 min: unit not given here; settings: for Effect on PCP-induced high locomotor activity compared with olanzapine (in words) / Inhibition of PCP-induced high locomotor activity (in words): 5, 10, 20 mg/kg; for Effect on PCP-induced high locomotor activity compared with olanzapine (in words): p.o. vs olanzapine 5 mg/kg p.o.; for Inhibition of PCP-induced high locomotor activity (in words): p.o., P<0.05-0.01; for Distance resulting from the activity, First 30 min / Distance resulting from the activity, Last 30 min: PCP 5.0 mg/kg s.c., male ICR mice
Excerpt: • 1. The effect of the compound on phencyclidine (PCP) induced high locomotor activity (LMA) in mice was detected.
The test compound MDC was milky white powder and stored in a shade and cool place (freshly formulated with 1% DMSO before use). […] Phencyclidine (PCP), purchased from Sigma Aldrich, was a grayish white powder (freshly formulated with normal saline before use). 1% DMSO was formulated by diluting pure DMSO (purity>99.5, purchased from Sigma-Aldrich) with normal saline.
(§1) Male ICR mice having weight 22±2 g were kept at 8 mice/cage with 12/12 hours light/dark cycle, temperature 23° C.±1° C., humidity 50% to 60%, free to eat and drink water.
The administration volume was 0.1 ml/10 g body weight; PCP was formulated with normal saline at a dose of 5 mg/kg.
The test compound MDC and olanzapine were administered by gavage and PCP was administered by subcutaneous injection.
(§2) After one week of acclimation, mice were randomly divided into 6 groups according to their body weight: negative control group, model group, positive control group, and low dose group, medium dose group and high dose group for the test compound. 8-10 animals/group.
(§3) Group 1: Negative control group: Normal saline (s.c.)+1% DMSO (10.0 ml/kg, p.o.);
Group 2: Model group: PCP (5.0 mg/kg, s.c.)+1% DMSO (10.0 ml/kg, p.o.);
Group 4: MDC low dose group: PCP (5.0 mg/kg, s.c.)+MDC (5 mg/kg, p.o.);
Group 5: MDC medium dose group: PCP (5.0 mg/kg, s.c.)+MDC (10 mg/kg, p.o.);
Group 6: MDC high dose group: PCP (5.0 mg/kg, s.c.)+MDC (20 mg/kg, p.o.).
After oral administration, the animals were immediately placed in a locomotor activity box and recorded by Shanghai Jiliang ( ? ) animal video analysis system for 1 hour.
(§4) After the experiment, the activity of the animals within 1 hour was analyzed using the trajectory analysis software of Shanghai Jiliang animal video analysis system to obtain the total distance resulting from the activity.

[2] = tested on: Amphetamine-induced high locomotor activity in mice; test: Amphetamine-induced high locomotor activity (LMA) in mice; assay type: in vivo; design: Distance resulting from the activity, First 30 min / Distance resulting from the activity, Last 30 min: unit not given here; settings: for Effect on Amphetamine-induced high locomotor activity compared with olanzapine (in words) / Inhibition of Amphetamine-induced high locomotor activity (in words): 5, 10, 20 mg/kg; for Effect on Amphetamine-induced high locomotor activity compared with olanzapine (in words): p.o. vs olanzapine 5.0 mg/kg p.o.; for Inhibition of Amphetamine-induced high locomotor activity (in words): p.o., P<0.05-0.01; for Distance resulting from the activity, First 30 min / Distance resulting from the activity, Last 30 min: Amphetamine 1.0 mg/kg s.c., male ICR mice
Experimental: The test compound MDC was a milky white powder and stored in a shade and cool place (formulated with 1% DMSO before use). […] Amphetamine, purchased from Sigma-Aldrich, was a white powder (formulated with normal saline before use). 1% DMSO was formulated by diluting pure DMSO (purity>99.5, purchased from Sigma) with normal saline.
as §1
The administration volume was 0.1 ml/10 g body weight; Amphetamine was freshly formulated with normal saline at a dose of 1.0 mg/kg and administered subcutaneously.
as §2, §3
Group 2: Model group: Amphetamine (1.0 mg/kg, s.c.)+1% DMSO (10.0 ml/kg, p.o.);
Group 4: MDC low dose group: Amphetamine (1.0 mg/kg, s.c.)+MDC (5 mg/kg, p.o.);
Group 5: MDC medium dose group: Amphetamine (1.0 mg/kg, s.c.)+MDC (10 mg/kg, p.o.);
Group 6: MDC high dose group: Amphetamine (1.0 mg/kg, s.c.)+MDC (20 mg/kg, p.o.).
After administration, the animals were immediately placed in a locomotor activity box and recorded by Shanghai Jiliang animal video analysis system for 1 hour.
as §4

[3] = 5 mg/kg p.o. (low dose group; olanzapine positive control)
[4] = 10 mg/kg p.o. (medium dose group)
[5] = 20 mg/kg p.o. (high dose group)

T1 sequence (P14416 whole entry): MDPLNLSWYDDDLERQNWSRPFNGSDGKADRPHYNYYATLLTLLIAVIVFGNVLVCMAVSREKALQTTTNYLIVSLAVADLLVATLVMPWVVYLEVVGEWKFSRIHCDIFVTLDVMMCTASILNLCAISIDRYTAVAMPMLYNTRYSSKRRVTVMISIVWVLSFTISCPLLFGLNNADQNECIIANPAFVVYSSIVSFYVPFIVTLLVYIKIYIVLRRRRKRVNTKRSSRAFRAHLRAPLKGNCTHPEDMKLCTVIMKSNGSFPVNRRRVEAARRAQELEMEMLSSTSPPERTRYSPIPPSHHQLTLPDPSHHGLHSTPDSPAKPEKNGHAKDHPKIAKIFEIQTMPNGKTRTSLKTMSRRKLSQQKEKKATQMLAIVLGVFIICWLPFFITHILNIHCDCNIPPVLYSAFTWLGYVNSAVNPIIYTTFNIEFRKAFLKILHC

SMILES | IC50 (D2 receptor) [nM] | Effect on PCP-induced high locomotor activity compared with olanzapine (in words) [1] | Inhibition of PCP-induced high locomotor activity (in words) [1] | Distance resulting from the activity, First 30 min [1, 3] | Distance resulting from the activity, Last 30 min [1, 3] | Distance resulting from the activity, First 30 min [1, 4] | Distance resulting from the activity, Last 30 min [1, 4] | Distance resulting from the activity, First 30 min [1, 5] | Distance resulting from the activity, Last 30 min [1, 5] | Effect on Amphetamine-induced high locomotor activity compared with olanzapine (in words) [2] | Inhibition of Amphetamine-induced high locomotor activity (in words) [2] | Distance resulting from the activity, First 30 min [2, 3] | Distance resulting from the activity, Last 30 min [2, 3] | Distance resulting from the activity, First 30 min [2, 4] | Distance resulting from the activity, Last 30 min [2, 4] | Distance resulting from the activity, First 30 min [2, 5] | Distance resulting from the activity, Last 30 min [2, 5]
Oc1cccc(C2CCN(Cc3c[nH]c4ccccc34)C2)c1 (racemic) [MDC-161502-002, 1-(indole-3-methyl)-3-(3-hydroxyphenyl)pyrrolidine] | 2 | equivalent to the effect of the positive drug olanzapine; also recorded: significant advantages over olanzapine | inhibited PCP-induced high locomotor activity in mice | 241185 | 265712 | 211543 | 206789 | 158231 | 110918 | equivalent to olanzapine; also recorded: better than olanzapine | significantly inhibited | 284824 | 257329 | 250678 | 231296 | 180127 | 148036
O=S(=O)(CC(F)(F)F)Nc1cccc(C2CCN(Cc3c[nH]c4ccccc34)C2)c1 (stereo not shown) [MDC-161502-006, 1-(indole-3-methyl)-3-(3-trifluoroethanesulfonamidophenyl)pyrrolidine] | 171 | – | – | 327586 | 302499 | 286745 | 267834 | 248576 | 230867 | – | – | 340368 | 318973 | 298763 | 257632 | 270378 | 231584
O=S(=O)(Nc1cccc(C2CCN(Cc3c[nH]c4ccccc34)C2)c1)c1cccs1 (stereo not shown) [MDC-161502-008, 1-(indole-3-methyl)-3-[3-(2-thiophenesulfonamido)phenyl]pyrrolidine] | 5.4 | equivalent to the effect of the positive drug olanzapine | inhibited PCP-induced high locomotor activity in mice | 299745 | – | 246900 | 230876 | 220968 | 189765 | equivalent to olanzapine | significantly inhibited | 287643 | 264309 | 253945 | 220678 | 209673 | 219876
